“And” between values parts separate entries of the source, which are not always exact repeats. Equal entries are not always repeated.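 Following 48 hours of exposure in 96-well plates, responses at five concentrations were used to interpolate endpoints linearly. GI50 = concentration required for 50% inhibition of growth. Definition used: TGI = concentration required for complete inhibition of growth.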
Key:
Assay in all cases: NCI anticancer screen, dose series, 48 h
SK-OV-3 ovarian = test system: SK-OV-3 ovarian
SN12C renal = test system: SN12C renal
SR leukemia = test system: SR leukemia
UO-31 renal = test system: UO-31 renal
DU-145 prostate = test system: DU-145 prostate
MDA-MB-435 = test system: MDA-MB-435
COLO 205 colon = test system: COLO 205 colon
SW-620 colon = test system: SW-620 colon
786-0 renal = test system: 786-0 renal
TK-10 renal = test system: TK-10 renal

Compound	TGI (SK-OV-3 ovarian)	TGI (SN12C renal)	TGI (SR leukemia)	TGI (UO-31 renal)	TGI (DU-145 prostate)	TGI (MDA-MB-435)	TGI (COLO 205 colon)	TGI (SW-620 colon)	TGI (786-0 renal)	TGI (TK-10 renal)	GI50 (SK-OV-3 ovarian)	GI50 (SN12C renal)	GI50 (SR leukemia)	GI50 (UO-31 renal)	GI50 (DU-145 prostate)	GI50 (MDA-MB-435)	GI50 (COLO 205 colon)	GI50 (SW-620 colon)	GI50 (786-0 renal)	GI50 (TK-10 renal)
O=C1C(c2ccccc2)=[N+]([O-])c2ccccc21	31.4 µM	34.2 µM	23.5 µM	29.7 µM	32.4 µM	11.2 µM	29.7 µM	22.3 µM	34.1 µM	37.4 µM										
O=C(O)c1ccc2c(c1)CCCC(c1ccc(Cl)cc1Cl)=C2c1ccc(O[C@H]2CCN(CCCF)C2)cc1	30.8 µM	31 µM	20.7 µM	25.6 µM	27.5 µM	24.3 µM	33.7 µM	28.9 µM	28 µM	27.6 µM	16.7 µM	15.2 µM	4.87 µM	9.76 µM	14.2 µM	10.5 µM	14.9 µM	14.3 µM	12.9 µM	13.4 µM
C=CC(=O)Nc1cc2c(Nc3ccc(F)c(Cl)c3)ncnc2cc1OCCCN1CCOCC1	4.1 µM and > 9.32 µM	6.8 µM and > 10 µM	> 21 µM and 6.51 µM	12.9 µM and > 8.65 µM	12.2 µM and > 10 µM	12 µM and > 10 µM	7.32 µM and > 10 µM	3.59 µM and > 6.13 µM	10.9 µM and > 10 µM	9.6 µM and 6.78 µM	0.0791 µM and 0.127 µM	0.805 µM and 1.59 µM	1.72 µM and 2.3 µM	0.288 µM and 0.103 µM	0.159 µM and 0.741 µM	2.67 µM and 4.1 µM	2.42 µM and 4.59 µM	1.81 µM and 2.62 µM	2.04 µM and 3.04 µM	< 0.01 µM and 0.00217 µM
NC(N)=NCCC1OC(=O)C2=C1c1c(O)ccc3nccc(c13)O2 (centres undefined)	> 100 µM	> 100 µM	> 100 µM	> 100 µM	> 100 µM	> 100 µM	> 100 µM	> 100 µM	> 100 µM	> 100 µM	> 100 µM	> 100 µM	> 100 µM	> 100 µM	> 100 µM	> 100 µM	> 100 µM	> 100 µM	> 100 µM	> 100 µM
CCOc1cc(/C=N\Nc2nnc(C)n2N)c(C)cc1N(CCCl)CCCl	8.24 µM	27.3 µM	23.5 µM	11.8 µM	> 100 µM	> 39.1 µM	1.89 µM	> 57.3 µM	23.2 µM	51.4 µM	2.28 µM	1.07 µM	0.558 µM	1.3 µM	2.68 µM	0.5 µM	0.375 µM	0.663 µM	1.51 µM	1.97 µM
COc1ccc2[nH]c(O)c(C(=Nc3ccc(N(C)C(=O)CN4CCN(C)CC4)cc3)c3ccccc3)c2c1	9.32 µM	10.4 µM	1.45 µM	8.45 µM	11.8 µM	11.3 µM	2.9 µM	11.4 µM	5.52 µM	7.08 µM	2.96 µM	0.74 µM	0.23 µM	1.45 µM	2.66 µM	1.29 µM	0.575 µM	1.78 µM	1.9 µM	1.99 µM
COc1ccc(N2C(=O)[C@H]3CC(C)c4c([nH]c5ccccc45)[C@H]3C2=O)cc1 (some centres undefined)	23.6 µM	83.9 µM	> 100 µM	83.8 µM	> 45.8 µM	2.3 µM	9.11 µM	> 86.8 µM	16.4 µM	52.7 µM										
O=C(O)C1CCCCC1C(=O)O.[NH-]C1CCC1.[NH2-].[Pt+2] (centres undefined)	> 100 µM	26.7 µM	> 100 µM	50.3 µM	25 µM	29.3 µM	24.6 µM	44.5 µM	33 µM	34.4 µM	48.7 µM	11.8 µM	3.72 µM	19.4 µM	12.5 µM	15.7 µM	10.3 µM	14.4 µM	15.4 µM	18.1 µM
Cc1sc2nc3c4ccccc4c(NCCCN(C)C)nn3c(=O)c2c1C	26.3 µM	21.7 µM	3.52 µM	16.7 µM	14.5 µM	3.74 µM	2.79 µM	4.55 µM	21.9 µM	28.9 µM	13.4 µM	5.14 µM	1.33 µM	3.13 µM	4.4 µM	1.79 µM	1.43 µM	1.67 µM	9.14 µM	13.6 µM
COc1ccc(-c2ccc(-c3ccc(C(=N)N)cn3)o2)cc1	21.8 µM	22.5 µM	10.3 µM	17.3 µM	24.7 µM	4.97 µM	3.68 µM	16 µM	18.8 µM	22.7 µM	10.2 µM	8.01 µM	3.11 µM	2.68 µM	11.3 µM	2.18 µM	1.82 µM	4.05 µM	6.02 µM	10.7 µM
COc1ccccc1/C=C/C(=O)c1ccccc1	> 100 µM	22.9 µM		17.9 µM	16.3 µM	21.7 µM	42.1 µM	7.08 µM	32.8 µM	36.5 µM	33.3 µM	7.55 µM	1.77 µM	4.69 µM	5.23 µM	5.16 µM	16.9 µM	2.66 µM	18.3 µM	21.2 µM
Cc1cc2c(cc1Cl)SC1=NN(C)C(N(C)C)N1S2(=O)=O (centres undefined)	> 100 µM	> 100 µM	> 100 µM	> 100 µM	> 100 µM	> 100 µM	> 100 µM	> 100 µM	> 100 µM	> 100 µM	> 100 µM	> 100 µM	> 100 µM	98.1 µM	> 100 µM	> 100 µM	> 100 µM	> 100 µM	> 100 µM	> 100 µM
COc1cc(-c2cn(-c3ccc(Cl)c(Cl)c3)c(=O)n2C(C)=O)cc(OC)c1OC	33.3 µM	31.1 µM	34.5 µM	27.4 µM	18.2 µM	35 µM	21.7 µM	29.8 µM	11.5 µM	31 µM	15.4 µM	12.3 µM	14.8 µM	12 µM	5.32 µM	14.2 µM	7.9 µM	12.9 µM	2.79 µM	12.2 µM

Reference: PubChem BioAssay (NCI)
